Legend:
[1] = Temozolomide pharmacokinetics and CNS penetration (literature); assay type: in vivo, human; settings: from 20% of plasma concentration
Description: An efficient treatment of GBM is difficult to develop for a series of reasons. First, GBM is characterized by many dysregulated pathways that can hardly be all blocked and repaired at the same time with a single therapy [Alifieris, C.; Trafalis, D. T. “Glioblastoma multiforme: pathogenesis and treatment” Pharmacol. Ther. 2015, 152, 63-82.]. Second, GBM partly consists of infiltrating cells that cannot easily be all removed by surgery. Third, GBM early diagnosis is not carried out routinely. Sensitive imaging techniques, such as MRI are still too expensive to be carried out on a regular basis over the whole population. Fourth, the optimization of a clinical protocol for GBM treatment requires the use of an accurate and representative preclinical GBM model. Currently used mouse and rat models are not appropriate because their tumors are typically ˜10^3-10^4 smaller than human GBM [Biasibetti, E.; Valazza, A.; Capucchio, M. T.; Annovazzi, L.; Battaglia. L.; Chirio, D.; Gallarate, M.; Mellai, M.; Muntoni, E.; Peira, E.; Riganti, C.; Schiffer, D.; Panciani, P.; Lanotte, M. “Comparison of Allogeneic and Syngeneic Rat Glioma Models by Using MRI and Histopathologic Evaluation” Comp. Med. 2017, 67, 147-156.]. […]

[2] = cited from earlier work

Cn1nnc2c(C(N)=O)ncn2c1=O [TMZ, temozolomide]
experimentally estimated log BB (Brain-Blood Distribution) [1]: around −0.7
concentration in brain and cerebrospinal fluid, % of the plasma concentration ([2]; 35 patients with malignant gliomas): approximately 20%
elimination half-life ([2]; oral administration): approximately 1.8 hours
